For one assay, the system named is PDE-4. Kind of assay: Phosphodiesterase 4 assay ([3H]cAMP SPA), enzyme preparation from rat heart. The format is biochemical. Particulars: PDE-4 activity, dose 10 μg/ml. As for the experimental part: FIG. 2. […] To examine whether IICT-TA67 inhibits PDE-4 activity in vitro, enzyme preparations were incubated in the absence or presence of different concentrations (1-20 μg/ml) of IICT-TA67 and breakdown of cAMP was monitored by β counter.
Table 1. Measurement of phosphodiesterase (PDE)-4 activity by compounds.
Heart was excised from anesthetized rat and transfer into normal saline solution. […] The homogenate was centrifuged at 500×g for 5 minute at 4° C. Then sup was taken for further centrifuged at 40,000×g for 30 minute (ultra centrifugation). After centrifugation supernatant was collected for phosphodiesterase assay. Protein concentration was estimated and for each assay, 2.5 μg protein (PDE enzyme preparation) was used.
Phosphodiesterase 4 assay: Phosphodiesterase 4 assay was conducted with [^3H] cAMP SPA enzyme assay (GE Amersham, UK) using 2.5 μg enzyme preparation for each well. Into each well 60 μl water, 10 μl assay buffer supplied with the kit, 10 μl compound (inhibitor), 10 μl PDE enzyme or homogenizing buffer (blank) and 10 μl radiolabel led cAMP ([^3H]cAMP, GE Amersham, UK) were added. To check activity of the enzyme without inhibitor 10 μl DMSO was added in place of inhibitor to a separate well. The reaction mixtures were incubated for 30 mi at 30° C. The reaction was stopped by adding 50 μl SPA bead supplied with the kit. It was then mixed well and allowed to stand at room temperature for 20 min. Breakdown of cAMP in each tube was monitored by β counter. The reading in each tube was obtained in counts per minute (CPM). The reading of the blank tube (without enzyme) was subtracted from each tube to normalize the counts. The enzyme activity was calculated by considering the CPM reading without any inhibitor (compound) as 100.

Assay [1] concerns airway hyperresponsiveness (AHR) in mouse model of asthma. Kind of assay: Airway hyperresponsiveness to methacholine in OVA sensitized and challenged mouse model of asthma. The format is in vivo, BALB/c mice. As for the experimental part: The above protocols described in the present invention can be utilized similarly for the synthesis of numerous analogues of ‘triazine-aryl-bis-indole’ class of novel compounds represented by Formula I. • Scheme V • With reference to FIG. 9, mice were sensitized with ovalbumin (OVA) intraperitonially (i.p.) on days 0, 7 and 14 as shown in scheme V. Sham group mice were sensitized with only alum dissolved in PBS. From day 21 to 30, mice were exposed to aerosol of OVA (3%) inhalation 25 minutes daily in a Plexiglas chamber (20×20×10 cm^3). […]
Airway responsiveness was measured by barometric plethysmography using whole-body plethysmography (WBP; Buxco, Troy, N.Y.) 12 hours after last saline or ovalbumin challenge. […] Enhanced pause (Penh) to methacholine as measured using barometric plethysmography is a valid indicator of bronchoconstriction in mice and can be used to measure AHR.
FIG. 3. […] AHR was measured after allergen challenge with increasing concentrations of methacholine and MChPC200 was calculated. […]
Airway responsiveness was measured by barometric plethysmography using whole-body plethysmography (WBP; Buxco, Troy, N.Y.) 12 hours after last saline or ovalbumin challenge. […]

In the case of `COc1ccc(C(c2[nH]c3ccccc3c2CC(=O)O)c2[nH]c3ccccc3c2CC(=O)O)cc1Oc1nc(NC2CC2)nc(NC2CC2)n1` [Compound 7, 2,2′-[2,2′-3-(4,6-bis-cyclopropylamino)-1,3,5-triazin-2-yl-oxy-4-methoxy-phenyl]-methylene-bis-(1H-indole-3,3-diyl)-diacetic acid], the Inhibition % in the assay with PDE-4 was determined as 60%. Besides, the “MChPC200” value in assay [1] (OVA/OVA mice, 0.1, 1 and 10 mg/kg orally twice per day, versus OVA/OVA/VEH) is “significantly attenuated the decrease in MChPC200”. The “dose of maximum effect on MChPC200” value in assay [1] (OVA/OVA mice, orally twice per day) is 0.1 mg/kg.
